# Paper PMC7367873, “Dissecting the sequence determinants for dephosphorylation by the catalytic subunits of phosphatases PP1 and PP2A” (Nature Communications, 2020)
# Experiments:
# [1] = system: GFP-14-3-3β and its binding proteins; test: GFP-14-3-3β co-IP with LC-MS/MS label-free quantification, untreated versus PP1c-treated; design: species or system human
# Method: (§1) HeLa Kyoto cells expressing transiently transfected pEGFP(C1)-14-3-3β or pEGFP(C1) control plasmid, were incubated with 20 nM Calyculin A (# 9902 S, Cell Signaling Technology) for 12 min. Cells were washed twice on ice with cold PBS and after addition of 500 µL lysis buffer (100 mM NaCl, 10 mM Tris, 0.1% IGEPAL, 1 mM EDTA, 1 mM EGTA, 20 nM Calyculin A, 1x cOmplete Mini protease inhibitor cocktail (Sigma), 1 mM DTT, 1 mM MnCl2) cells were scraped from plates, lysed by 10 pushes through an injection needle (21 G, BD) and the insoluble fraction was pelleted by centrifugation (10 min, 10^4 rcf, 4 °C). Supernatants were then subjected to incubation with 1 µM recombinant phosphatase or buffer for 1 h at 30 °C. Next, we subjected samples to immunoprecipitation using α-GFP nanobodies covalently coupled to agarose beads (2 h, 4 °C, obtained from the EMBL PEPcore Core Facility). Beads were then washed three times with lysis buffer and samples were eluted in 1x LDS sample buffer (Thermo Fisher Scientific) by heating to 70 °C for 10 min.
# (§2) The samples were then reduced with 25 mM dithiothreitol (10 min at 70 °C) and alkylated with 55 mM chloroacetamide (room temperature, 30 min, in the dark). Proteins were run on a precast 4–12% NuPAGE gel (ThermoFisher Scientific) for about 1 cm to concentrate the sample prior to in-gel tryptic digestion, which was performed according to the standard procedures. The peptides obtained were dried to completeness and resuspended in 12 µL of buffer A (0.1% FA), and 5 µL of sample were injected per MS measurement. The experiment was carried out in three independent replicates.
# (§3) The samples were analyzed by LC-MS/MS on a Dionex Ultimate 3000 nano-HPLC coupled online to a Fusion Lumos Tribrid mass spectrometer (Thermo Fisher Scientific). Peptides were delivered to a trap column (75 µm × 2 cm, packed in-house with 5 µm C18 resin; Reprosil PUR AQ, Dr. Maisch) and washed using 0.1% FA at a flow rate of 5 µL/min for 10 min. Subsequently, peptides were transferred to an analytical column (75 µm × 45 cm, packed in-house with 3 µm C18 resin; Reprosil Gold) applying a flow rate of 300 nL/min and separated using a 60 min linear gradient from 4% to 32% LC solvent B (0.1% FA, 5% DMSO in ACN) in LC solvent A (0.1% FA in 5% DMSO). The eluate from the analytical column was sprayed via a stainless steel emitter (Thermo Fisher Scientific) at a source voltage of 2.1 kV into the mass spectrometer. The transfer capillary was heated to 275 °C. The Fusion Lumos was operated in positive ionization mode and data-dependent acquisition (DDA), automatically switching between MS1 and MS2 spectrum acquisition. Full scan MS1 spectra were recorded in the Orbitrap from 360 to 1300 m/z at a resolution of 60k (automatic gain control (AGC) target value of 4e5 charges, maximum injection time (maxIT) of 50 ms). Up to 20 peptide precursors were isolated (isolation window, 1.7 m/z; maximum injection time, 25 ms; and AGC value, 1e5), fragmented by high-energy collision-induced dissociation (HCD) using 30% normalized collision energy (NCE), and analyzed at a resolution of 15k in the Orbitrap. Precursor ions that were singly charged, unassigned, or with charge states >6+ were excluded. The dynamic exclusion duration of fragmented precursor ions was 20 s.
# (§4) Peptide and protein identification and LFQ were performed using MaxQuant software (version 1.6.1.0)[64] by searching the data against all canonical protein sequences as annotated in the Swissprot reference database (human proteins only, 20193 entries, downloaded 22 March 2016, internally annotated with PFAM domains) using the embedded search engine Andromeda[65]. The MaxQuant search was performed using two variable modifications; oxidation of methionine and N-terminal protein acetylation. Carbamidomethylation on cysteines was specified as a fixed modification. Trypsin (Trypsin/P) was specified as the proteolytic enzyme with up to two allowed missed cleavage sites.
# [2] = system: GFP-14-3-3β; test: GFP-14-3-3β co-IP with LC-MS/MS, untreated GFP-14-3-3β versus GFP control (14-3-3 interactome); type: binding, human
# Method: as §1, §2, §3, §4
# [3] = GFP-14-3-3β co-IP LC-MS/MS, PP1 vs untreated, student's t-test, label-free quantification, 3 replicates each
# [4] = GFP-14-3-3β co-IP LC-MS/MS, untreated vs GFP, student's t-test, label-free quantification, 3 replicates each
# [5] = PP1 vs untreated, LFQ intensities, replicates 1-3
# [6] = untreated vs GFP, LFQ intensities, replicates 1-3
# [7] = pairwise comparison PP1 vs untreated, student's t-test, 3 replicates each, LC-MS/MS label-free quantification
# [8] = pairwise comparison untreated GFP-14-3-3β vs GFP, student's t-test, 3 replicates each, LC-MS/MS label-free quantification
# [9] = pairwise comparison PP1 vs untreated
# [10] = pairwise comparison untreated vs GFP
# [11] = PP1 vs untreated, label-free quantification
# [12] = untreated vs GFP, label-free quantification
# [13] = PP1 vs untreated, LFQ intensities, 3 replicates each
# [14] = untreated vs GFP, LFQ intensities, 3 replicates each
substance,measurement,setting,value
CAD,"Difference (log2), PP1 vs untreated",[1]; [3],-0.6324 log2
same,"Difference (log2), untreated vs GFP",[2]; [4],0.93 log2
YWHAZ,"Difference (log2), PP1 vs untreated",[1]; [5],-1.298 log2
same,"Difference (log2), untreated vs GFP",[2]; [6],6.453 log2
NUMA1,"Difference (log2), PP1 vs untreated",[1]; [5],-0.7467 log2
same,"Difference (log2), untreated vs GFP",[2]; [6],2.2393 log2
DYNLL1,"Difference (log2), PP1 vs untreated",[1]; [7],-2.451 log2
same,"Difference (log2), untreated vs GFP",[2]; [8],3.684 log2
RICTOR,"Difference (log2), PP1 vs untreated",[1]; [5],-0.7631 log2
same,"Difference (log2), untreated vs GFP",[2]; [6],3.3487 log2
ARHGAP21,"Difference (log2), PP1 vs untreated",[1]; [7],-2.341 log2
same,"Difference (log2), untreated vs GFP",[2]; [8],4.914 log2
ANXA2;ANXA2P2,"Difference (log2), PP1 vs untreated",[1]; [9],0.07284 log2
same,"Difference (log2), untreated vs GFP",[2]; [10],-0.03703 log2
YWHAB,"Difference (log2), PP1 vs untreated",[1]; [3],-0.475 log2
same,"Difference (log2), untreated vs GFP",[2]; [4],6.723 log2
DENND4A,"Difference (log2), PP1 vs untreated",[1]; [7],-5.672 log2
same,"Difference (log2), untreated vs GFP",[2]; [8],5.3156 log2
SLC7A5,"Difference (log2), PP1 vs untreated",[1]; [3],-0.2534 log2
same,"Difference (log2), untreated vs GFP",[2]; [4],0.7726 log2
EMD,"Difference (log2), PP1 vs untreated",[1]; [11],1.014 log2
same,"Difference (log2), untreated vs GFP",[2]; [12],-1.504 log2
TUBA4A,"Difference (log2), PP1 vs untreated",[1]; [13],0.3784 log2
same,"Difference (log2), untreated vs GFP",[2]; [14],-0.9346 log2
CCT3,"Difference (log2), PP1 vs untreated",[1]; [11],0.8223 log2
same,"Difference (log2), untreated vs GFP",[2]; [12],0.2505 log2
MARK3,"Difference (log2), PP1 vs untreated",[1]; [7],-2.088 log2
same,"Difference (log2), untreated vs GFP",[2]; [8],4.732 log2
CLASP1,"Difference (log2), PP1 vs untreated",[1]; [3],-0.7054 log2
same,"Difference (log2), untreated vs GFP",[2]; [4],1.4296 log2
TAF15,"Difference (log2), PP1 vs untreated",[1]; [5],-1.048 log2
same,"Difference (log2), untreated vs GFP",[2]; [6],0.6755 log2
KIAA1671,"Difference (log2), PP1 vs untreated",[1]; [3],-0.2284 log2
same,"Difference (log2), untreated vs GFP",[2]; [4],1.934 log2
SMN1,"Difference (log2), PP1 vs untreated",[1]; [3],-0.1766 log2
same,"Difference (log2), untreated vs GFP",[2]; [4],1.023 log2
PNN,"Difference (log2), PP1 vs untreated",[1]; [3],-0.4869 log2
same,"Difference (log2), untreated vs GFP",[2]; [4],2.978 log2
ARAF,"Difference (log2), PP1 vs untreated",[1]; [7],-3.95 log2
same,"Difference (log2), untreated vs GFP",[2]; [8],3.851 log2
RFC3,"Difference (log2), PP1 vs untreated","[1]; log2 difference, pairwise comparison PP1 vs untreated, label-free quantification, 3 replicates each",1.3203
same,"Difference (log2), untreated vs GFP","[2]; log2 difference, pairwise comparison untreated vs GFP, label-free quantification, 3 replicates each",-0.5439
TFAM,"Difference (log2), PP1 vs untreated",[1]; [13],0.5786 log2
same,"Difference (log2), untreated vs GFP",[2]; [14],-2.855 log2
YES1,"Difference (log2), PP1 vs untreated",[1]; [5],-0.8848 log2
same,"Difference (log2), untreated vs GFP",[2]; [6],-0.5463 log2
DDX6,"Difference (log2), PP1 vs untreated",[1]; [3],-0.3213 log2
same,"Difference (log2), untreated vs GFP",[2]; [4],1.378 log2
IFI16,"Difference (log2), PP1 vs untreated",[1]; [11],0.961 log2
same,"Difference (log2), untreated vs GFP",[2]; [12],0.868 log2
PPIB,"Difference (log2), PP1 vs untreated",[1]; [13],0.6708 log2
same,"Difference (log2), untreated vs GFP",[2]; [14],0.09722 log2
TJP1,"Difference (log2), PP1 vs untreated",[1]; [9],-0.07001 log2
same,"Difference (log2), untreated vs GFP",[2]; [10],1.92 log2
